From patent US20250152650A1, “COMPOSITIONS FOR TREATING SEA LICE IN SALMON AND RELATED METHODS” (KEMIN INDUSTRIES, INC., priority 2023, published 2025)
Where two headings read alike, the source gives them in different places.

Key:
salmon = settings: farmed salmon; cited from earlier work
copepodid sea lice = settings: 10 parts per trillion, purified compounds; cited from earlier work
[1] = system: mobile stage sea lice (adults and pre-adults); test: Mobile stages bioassay; set-up: species or system Lepeophtheirus salmonis
sea lice = test: In-feed trial with sea lice challenge in Atlantic salmon; type: in vivo, Atlantic salmon (Salmo salar); settings: for Reduction Versus Control: reduction in mean number of lice at 6-7 dpi versus Control Diet; for Reduction Versus Control / Reduction Versus SLICE: diet doses as in Table 10; for Reduction Versus SLICE: reduction in mean number of lice at 6-7 dpi versus SLICE (10 ppm) diet; for Mean Number of Lice: total copepodid and chalimus lice per fish at 6-7 dpi, study diet fed 3 weeks before challenge with approx. 140 lice per fish, O-LD oregano oil 2000 ppm, O-HD 5000 ppm, M-LD Monarda fistulosa oil 2000 ppm, thymol 1000 ppm, thymoquinone 500 ppm, SLICE 10 ppm
[2] = system: copepodids of Norwegian origin; settings: for Mean proportion of survival: 24 hours exposure
[3] = system: copepodids of Norwegian origin; test: whole plant or invertebrate; settings: Lepeophtheirus salmonis, 24 h, read-out: lethality / lice mortality
[4] = system: L. salmonis copepodids of Canadian origin; test: Copepodid bioassay, copepodids of Canadian origin; set-up: species or system Lepeophtheirus salmonis; settings: for Mean proportion of survival: 24 hours exposure

| Molecule | masking of copepodid attraction to hosts or alpha-isophorone conditioned seawater (copepodid sea lice) | Mean proportion of survival ([1]; 1 ppb, 6 hours exposure) [%] | Mean proportion of survival ([1]; 1 ppb, 24 hours exposure) [%] | Mean proportion of survival ([1]; 1 ppm, 6 hours exposure) [%] | Mean proportion of survival ([1]; 1 ppm, 24 hours exposure) [%] | Mean proportion of survival ([1]; 10 ppb, 6 hours exposure) [%] | Mean proportion of survival ([1]; 10 ppb, 24 hours exposure) [%] | Mean proportion of survival ([1]; 10 ppm, 6 hours exposure) [%] | Mean proportion of survival ([1]; 10 ppm, 24 hours exposure) [%] | Mean proportion of survival ([1]; 100 ppb, 6 hours exposure) [%] | Mean proportion of survival ([1]; 100 ppb, 24 hours exposure) [%] | Reduction Versus Control (sea lice) [%] | Reduction Versus SLICE (sea lice) [%] | Mean Number of Lice (sea lice) | Mean proportion of survival ([2]; 0.01 ppb) [%] | Mean proportion of survival ([2]; 0.1 ppb) [%] | Mean proportion of survival ([2]; 1 ppb) [%] | Mean proportion of survival ([2]; 1 ppm) [%] | Mean proportion of survival ([2]; 10 ppb) [%] | Mean proportion of survival ([2]; 10 ppm) [%] | other results |
| --- | --- | --- | --- | --- | --- | --- | --- | --- | --- | --- | --- | --- | --- | --- | --- | --- | --- | --- | --- | --- | --- |
| OO [hydrogen peroxide] | – | – | – | – | – | – | – | – | – | – | – | – | – | – | – | – | – | – | – | – | mortality caused by a single treatment (salmon): 1% |
| C=CCSCC=C [diallyl sulfide] | masked copepodid sea lice attraction to hosts | – | – | – | – | – | – | – | – | – | – | – | – | – | – | – | – | – | – | – | – |
| CC1=CC(=O)C(C(C)C)=CC1=O [Thymoquinone] | – | 93.3 ± 9.4 | 93.3 ± 9.4 | 100.0 ± 0.0 | 83.7 ± 14.7 | 81.7 ± 5.4 | 87.1 ± 5.4 | 60.7 ± 5.1 | 0.0 ± 0.0 | 91.7 ± 2.4 | 91.7 ± 2.4 | 1.7 | 21.7 | 59.1 | 98.1 ± 3.2 | 98.6 ± 2.4 | 97.3 ± 2.5 | 75.6 ± 9.3 | 100.0 ± 0.0 | 0.0 ± 0.0 | Mean proportion of survival ([1]; 1 ppm, 24 hours exposure, listed as thymoquinone): not significantly different to control; Mean proportion of survival ([1]; 10 ppm, 24 hours exposure, listed as thymoquinone): completely lethal; Mean proportion of survival ([2]; 1 ppm, listed as thymoquinone): did not result in a biologically significant reduction in survival; Mean proportion of survival ([2]; 100 ppb): 92.9 ± 9.1%; mortality at 10 ppm [3]: 100% |
| C=CCSSCC=C [Diallyl disulfide, diallyl disulfide] | masked copepodid sea lice attraction to hosts | – | – | – | – | – | – | 100.0 ± 0.0 | 96.7 ± 4.7 | – | – | – | – | – | – | – | – | – | – | – | Mean proportion of survival ([4]; 1 ppb): 96.9 ± 2.7%; Mean proportion of survival ([4]; 1 ppm): 86.3 ± 4.0%; Mean proportion of survival ([4]; 10 ppb): 93.6 ± 8.0%; Mean proportion of survival ([4]; 10 ppm): 34.6 ± 6.4%; Mean proportion of survival ([4]; 10 ppm, listed as DD): 34.6%; Mean proportion of survival ([4]; 100 ppb): 95.2 ± 4.6%; Mean proportion of survival ([4]; 100 ppm (0.01%)): 17.4 ± 3.2%; Mean proportion of survival ([4]; 100 ppm (0.01%), listed as DD): 17.4%; survival compared to control, in words ([1]; 10 and 100 ppm): did not result in different survival compared to control; Mean proportion of survival ([1]; 100 ppm, 6 hours exposure): 96.2 ± 5.4%; Mean proportion of survival ([1]; 100 ppm, 24 hours exposure): 88.7 ± 5.8% |
| emamectin benzoate [EMB, reference compound] | – | – | – | – | – | – | – | – | – | 96.7 ± 4.7 | – | – | – | – | – | 0.0 ± 0.0 | 0.0 ± 0.0 | – | 0.0 ± 0.0 | – | survival, range over the dilution set ([4]; 0.5-50 ppb, 24 hours): 35.5-53.2%; Mean proportion of survival ([4]; 0.5 ppb): 53.2 ± 10.2%; Mean proportion of survival ([4]; 5 ppb): 50.7 ± 6.1%; Mean proportion of survival ([4]; 50 ppb): 35.5 ± 2.1%; Mean proportion of survival ([1]; 200 ppb, 6 hours exposure): 56.7 ± 4.7%; Mean proportion of survival ([1]; 200 ppb, 24 hours exposure): 53.3 ± 18.9%; Mean proportion of survival ([1]; 400 ppb, 6 hours exposure): 36.7 ± 14.1%; Mean proportion of survival ([1]; 400 ppb, 24 hours exposure): 23.3 ± 4.7%; Mean proportion of survival ([1]; 500 ppb, 24 hours, follow up trial): 46.9 ± 9.8%; survival, in words ([2]; all tested concentrations between 10 and 0.1 ppb): no survival |
| Cc1ccc(C(C)C)c(O)c1 [Thymol] | – | 100.0 ± 0.0 | 96.2 ± 5.4 | 92.8 ± 0.7 | 92.8 ± 0.7 | 95.8 ± 5.9 | 88.1 ± 5.0 | 23.7 ± 6.9 | – | 97.1 ± 4.2 | 97.1 ± 4.2 | 1.2 | −14.6 | 86.5 | 98.7 ± 2.2 | 93.9 ± 4.4 | 100.0 ± 0.0 | 87.9 ± 3.9 | 93.1 ± 9.3 | 56.1 ± 2.0 | Mean proportion of survival ([1]; 1 ppm, 24 hours exposure, listed as thymol): not significantly different to control; Mean proportion of survival ([2]; 100 ppb): 84.4 ± 6.1% |
